In publication PMC7860073 (ACS Omega, 2021):

Biological target: sialidase-1 (Homo sapiens, UniProt Q99519)
Test: microscale thermophoresis
Type: binding

Compound | Kd
COc1ccc(C(=O)c2ccc(C)cc2)c(O)c1 [mexenone] | 8.88 µM
COc1cnc(NS(=O)(=O)c2ccc(N)cc2)nc1 [sulfameter] | 2.15 µM
